In ChEMBL document CHEMBL1765013, “Structure-activity relationships in a series of C2-substituted gluco-configured tetrahydroimidazopyridines as β-glucosidase inhibitors” (Bioorg Med Chem, 2011):

test: Inhibition of sweet almond beta-glucosidase after 10 mins using 4-nitrophenylbeta-D-glucopyranoside as a substrate by Lineweaver-Burk and double reciprocal analysis; design: species or system Prunus dulcis

SMILES | Ki [nM]
OC[C@@H]1[C@@H](O)[C@H](O)[C@@H](O)c2nc(CCc3ccc(-c4ccccc4)cc3)cn21 | 24.5
CC(C)(CCc1cn2c(n1)[C@H](O)[C@@H](O)[C@H](O)[C@H]2CO)C(=O)Nc1ccccc1 | 3.5
OC[C@@H]1[C@@H](O)[C@H](O)[C@@H](O)c2nccn21 | 100
O=C(CCc1cn2c(n1)[C@H](O)[C@@H](O)[C@H](O)[C@H]2CO)Nc1ccccc1 | 6.8
OC[C@@H]1[C@@H](O)[C@H](O)[C@@H](O)c2nc(CCc3ccc(F)cc3)cn21 | 3.2
CCCCCCCCc1cn2c(n1)[C@H](O)[C@@H](O)[C@H](O)[C@H]2CO | 10.7
OC[C@@H]1[C@@H](O)[C@H](O)[C@@H](O)c2nc(CCc3ccc(C4CCCCC4)cc3)cn21 | 56.1
OC[C@@H]1[C@@H](O)[C@H](O)[C@@H](O)c2nc(CCc3ccccc3)cn21 | 1.9
Cc1ccc(CCc2cn3c(n2)[C@H](O)[C@@H](O)[C@H](O)[C@H]3CO)cc1 | 0.58
COc1ccc(CCc2cn3c(n2)[C@H](O)[C@@H](O)[C@H](O)[C@H]3CO)cc1 | 2
CC(C)(C)CCc1cn2c(n1)[C@H](O)[C@@H](O)[C@H](O)[C@H]2CO | 0.64
